Assays:
[1] = Storage stability in freezer / under ambient conditions; type: physicochemical
Excerpt: Compound 1 is obtained as a non-crystalline solid using the process set forth in US 2009/0325903. Compound 1 is obtained as a mixture of monomer and the trimer anhydride N,N′,N″-boroxin-2,4,6-triyltris {{(1R)-3-methylbutane-1,1-diyl]imino(2-oxoethane-2,1-diyl)]}tris(2,5-dichlorobenzamide) (H NMR analysis).
The citric acid ester of Compound 1 (4-(R,S)-(carboxymethyl)-2-((R)-1-(2-(2,5-dichlorobenzamido)acetamido)-3-methylbutyl)-6-oxo-1,3,2-dioxaborinane-4-carboxylic acid) is obtained as a crystalline solid (Form 1 or Form 2) using the process set forth in US 2009/0325903. The citric acid ester of Compound 1 is stable when stored in the freezer.

[2] = Storage for approximately one year at ambient indoor temperature and humidity, HPLC purity; type: physicochemical; conditions: in a vial at the rear of a fume hood
Method: A 100 mL three neck round bottom flask equipped with a stir bar, thermocouple and nitrogen inlet is charged with 6.0 g (16.6 mmol) of Compound 1 (98.5A % purity) and 60 mL of ethyl acetate then stirred for five minutes at room temperature to dissolve the solids. Diethanol amine (1.68 g, 16.0 mmol) is charged and solids begin to form when addition is only ⅔ complete. The white slurry is stirred at room temperature for two hours and then the solids are collected by vacuum filtration, washed with 50 mL of ethyl acetate and dried overnight in a vacuum oven at 40° C. A quantitative yield of the desired product is obtained as a crystalline solid with an HPLC purity of 99.7A %. After storing for approximately one (1) year at ambient indoor temperature and humidity (in a vial at the rear of a fume hood), the HPLC purity was 99.9A %. ^1H NMR (d6-DMSO, 400 MHz) δ 8.8 (t, 1H, J=5.88 Hz), 7.55 (s, 2H), 7.52 (s, 1H), 6.99 (d, 1H, J=8.36 Hz), 6.57 (s, b, 1H), 3.85 (dq, 1H, J=16.1, 5.92 Hz), 3.69 (m, 2H), 3.57 (m, 1H), 3.14 (m, 1H), 2.99 (m, 2H), 2.75 (m, 1H), 2.69 (m, 1H), 1.59 (m, 1H), 1.31 (m, 1H), 1.22 (m, 1H), 0.824 (d, 3H, J=6.64 Hz), 0.797 (D, 3 h, J=6.48 Hz)
A 15 mL one neck round bottom flask equipped with a stir bar and nitrogen inlet is charged with 0.5 g (1.39 mmol) of Compound 1 (98.5A % purity) and 5 mL of ethyl acetate then stirred for five minutes at room temperature to dissolve the solids. Diisopropanolamine (185 mg, 1.39 mmol) is charged and stirred at room temperature. The white precipitate is collected by vacuum filtration, washed with 5 mL of ethyl acetate and dried overnight under nitrogen on the filter to give 410 mg (0.895 mmol, 64%) of the desired product with an HPLC purity of 99.4A %. […]

[3] = Comparative bioavailability: pharmacokinetic parameters for Compound 1 in rat plasma and blood after single iv and oral doses of its esters; type: in vivo, male Sprague Dawley rats; conditions: for AUC0-t / AUC0-∞ / CL / Vd / t½ / Cmax / Oral Bioavailability / Tmax: mean ± SEM
Method: Three adult male Sprague Dawley rats are used in each treatment group. The rats are fasted overnight prior to oral dose administration. Intravenous (IV) administration is via the lateral tail vein and oral doses are administered by gavage. The compound is administered iv or orally in a vehicle of phosphate buffered saline.
For blood collection, each rat (unanesthetized) is placed in a clear Plexiglas® restraining tube, and blood samples (approximately 0.25 mL) are drawn from a lateral tail vein into heparinized collection tubes at predetermined sampling times (0.083, 0.25, 0.5, 1, 2, 4, and 6 hours post dose). No pre-dose samples are obtained. The exception to this procedure is the last sampling time in which the animals are sacrificed by decapitation and trunk blood is obtained rather than blood via a tail vein. The blood samples are placed on wet ice until centrifuged to separate plasma. The whole blood and the plasma fraction are transferred into clean dry tubes, frozen on dry ice and stored at approximately −20° C. pending analysis.
Blood or plasma is prepared for high performance liquid chromatography (HPLC)/mass spectrometric analysis according to standard protocol following protein precipitation with acetonitrile containing an internal standard. The blood or plasma samples are then analyzed for Compound 1 and alprenolol (internal standard) via HPLC coupled with tandem mass spectrometry.
The blood and plasma concentration data for all rats are entered into Excel spreadsheets in preparation for pharmacokinetic analysis. Pharmacokinetic parameters for Compound 1 are estimated for each rat by non-compartmental analysis (Gibaldi M, Perrier D. Pharmacokinetics, 2nd edition, Marcel Dekker, New York, Chapter 11, 1982) of the blood or plasma concentration versus time data using WinNonlin software (Professional Version 4.1a, Pharsight Corporation, Palo Alto, Calif., 2003).
The maximum blood or plasma concentration (Cmax) is the highest observed concentration after an oral dose; tmax is the corresponding time when Cmax is observed. The terminal rate constant for elimination from blood or plasma (β) is estimated by linear regression of the terminal portion of the semi-logarithmic plasma concentration versus time curve. The apparent terminal half-life (t1/2) is calculated as 0.693 divided by β. The area under the blood or plasma concentration versus time curve from time zero to the time of the last measurable concentration (AUC0-t) after a single dose is determined by the linear trapezoidal rule. The area from zero to infinity (AUC0-∞) is calculated as the sum of AUC0-t and the area extrapolated from the last measurable concentration to infinity (Clast/β). Concentrations pre dose are all assumed to be zero for the purpose of calculation of the AUC. Oral bioavailability is determined by dividing the dose normalized oral AUC0-∞ by the […] from iv dosing and multiplying by 100 to express the ratio as a percent.
The mean±SEM. pharmacokinetic parameters for Compound 1 in male Sprague Dawley rats administered as single iv and oral doses of the citric acid ester of Compound 1 (“Form 1” or “Form 2”) or the diethanolamine ester of Compound 1 (“DEA Adduct”; i.e., boronic ester of Formula X) are shown in Tables 5-10 and corresponding FIGS. 5-10.

[4] = Compound 1 in blood, 0.3 mg/kg IV
[5] = Compound 1 in blood, 1 mg/kg IV
[6] = Compound 1 in blood, 1 mg/kg PO
[7] = Compound 1 in blood, 3 mg/kg PO
[8] = Compound 1 in plasma, 0.3 mg/kg IV
[9] = Compound 1 in plasma, 1 mg/kg IV
[10] = Compound 1 in plasma, 1 mg/kg PO
[11] = Compound 1 in plasma, 3 mg/kg PO

Molecule: CC(C)C[C@H](NC(=O)CNC(=O)c1cc(Cl)ccc1Cl)B(O)O [Compound 1, [(1R)-1-({[(2,5-dichlorobenzoyl)amino]acetyl}amino)-3-methylbutyl]boronic acid]
- storage stability ([1]; ambient conditions): not storage stable
- storage stability ([1]; stored in the freezer): stable

Molecule: CC(C)C[C@H](NC(=O)CNC(=O)c1cc(Cl)ccc1Cl)B1OC(=O)CC(CC(=O)O)(C(=O)O)O1 (mixture of isomers) [citric acid ester of Compound 1, 4-(R,S)-(carboxymethyl)-2-((R)-1-(2-(2,5-dichlorobenzamido)acetamido)-3-methylbutyl)-6-oxo-1,3,2-dioxaborinane-4-carboxylic acid, reference compound]
- storage stability ([1]; stored in the freezer): stable

Molecule: CC(C)C[C@H](NC(=O)CNC(=O)c1cc(Cl)ccc1Cl)B1OC(C)CNCC(C)O1 (stereo partly drawn) [boronic ester of Formula IX, 2,5-Dichloro-N-{[(R)-1-(4,8-dimethyl-[1,3,6,2]dioxazaborocan-2-yl)-3-methyl-butylcarbamoyl]-methyl}benzamide]
- HPLC purity after storing for approximately one (1) year [2]: 99.8 A %

Molecule: CC(C)C[C@H](NC(=O)CNC(=O)c1cc(Cl)ccc1Cl)B1OC(=O)CN(C)CC(=O)O1 [2,5-Dichloro-N—{[(R)-3-methyl-1-(6-methyl-4,8-dioxo-[1,3,6,2]dioxazaborocan-2-yl)-butylcarbamoyl]-methyl}benzamide]
- HPLC purity after storing for approximately one (1) year [2]: 84.4 A %

Molecule: 2,5-Dichloro-N—[(R)-1-[1,3,6,2]dioxazaborocan-2-yl-3-methyl-butylcarbamoyl)methyl]-benzamide [boronic ester of Formula X]
- AUC0-t [3, 4]: 168 ± 46 ng·h/mL
- AUC0-∞ [3, 4]: 190 ± 45 ng·h/mL
- CL [3, 4]: 30 ± 6 mL/min/kg
- Vd [3, 4]: 5.8 ± 1.9 L/kg
- t½ [3, 4]: 2.2 ± 0.4 h
- AUC0-t [3, 5]: 509 ± 89 ng·h/mL
- AUC0-∞ [3, 5]: 535 ± 100 ng·h/mL
- CL [3, 5]: 33 ± 6 mL/min/kg
- Vd [3, 5]: 3.9 ± 0.7 L/kg
- t½ [3, 5]: 1.4 ± 0.2 h
- AUC0-t [3, 6]: 166 ± 16 ng·h/mL
- AUC0-∞ [3, 6]: 200 ± 17 ng·h/mL
- Cmax [3, 6]: 92 ± 39 ng/mL
- Oral Bioavailability [3, 6]: 32 ± 1%
- Tmax [3, 6]: 0.3 ± 0.1 h
- t½ [3, 6]: 2.8 h
- AUC0-t [3, 7]: 336 ± 69 ng·h/mL
- AUC0-∞ [3, 7]: 381 ± 78 ng·h/mL
- Cmax [3, 7]: 205 ± 84 ng/mL
- Oral Bioavailability [3, 7]: 23 ± 4%
- Tmax [3, 7]: 0.8 ± 0.6 h
- t½ [3, 7]: 1.7 ± 0.2 h
- AUC0-t [3, 8]: 449 ± 256 ng·h/mL
- AUC0-∞ [3, 8]: 457 ± 254 ng·h/mL
- CL [3, 8]: 20 ± 9 mL/min/kg
- Vd [3, 8]: 0.9 ± 0.3 L/kg
- t½ [3, 8]: 0.6 ± 0.1 h
- AUC0-t [3, 9]: 1225 ± 42 ng·h/mL
- AUC0-∞ [3, 9]: 1240 ± 47 ng·h/mL
- CL [3, 9]: 13 ± 1 mL/min/kg
- Vd [3, 9]: 1.2 ± 0.1 L/kg
- t½ [3, 9]: 1.1 ± 0.1 h
- AUC0-t [3, 10]: 170 ± 16 ng·h/mL
- AUC0-∞ [3, 10]: 182 ± 17 ng·h/mL
- Cmax [3, 10]: 179 ± 39 ng/mL
- Oral Bioavailability [3, 10]: 12 ± 1%
- Tmax [3, 10]: 0.3 ± 0.1 h
- AUC0-t [3, 11]: 990 ± 310 ng·h/mL
- AUC0-∞ [3, 11]: 1029 ± 299 ng·h/mL
- Cmax [3, 11]: 567 ± 185 ng/mL
- Oral Bioavailability [3, 11]: 27 ± 8%
- Tmax [3, 11]: 0.5 ± 0.0 h
- t½ [3, 11]: 1.1 ± 0.1 h
- oral bioavailability (conclusion in words) ([3]; conclusion from Tables 5-10): orally bioavailable
- HPLC purity after storing for approximately one (1) year [2]: 99.9 A %

Reference: US20140121182A1, “PROTEASOME INHIBITORS AND PROCESSES FOR THEIR PREPARATION, PURIFICATION AND USE” (Cephalon, Inc., priority 2011, published 2014)
